Test results: patent US9125930B2, “EGFR aptamer inhibitor for use in therapy and diagnosis” (CONSIGLIO NAZIONALE DELLE RICERCHE, priority 2010, dated 2015)

Legend:
caspase-3 = assay: Caspase-3 in A549 xenograft tumor lysates; format: in vivo, mouse; conditions: pooled tumor lysates
Experimental: FIG. 8. (A) A549 cells (2,000 cells/well in 24-well plates) were treated for 24 h or 48 h with CL4 42-81 or CL4 scrambled (200 nM-final concentration) and proliferation was determined by [^3H]-thymidine incorporation. Vertical bars indicate the standard deviation values. […] Day 0 marks the first day of injection. Data are shown as means±s.e.m. (n=8 tumors). (C) Three tumors per group selected randomly were excised, lysed, and the pooled lysates were immunoblotted with anti-pEGFR, anti-EGFR, anti-caspase-3, anti-cleaved caspase-8 and anti-αtubulin antibodies, as indicated. Molecular weights of indicated proteins are reported. (D) Cell lysates as in (C) were analyzed by caspase-3 fluorimetric assays.
Athymic CD-1 nude mice (nu/nu) were housed in a highly controlled microbiological environment, thus to guarantee specific pathogen free conditions. Mice were injected subcutaneously with 3×10^6 (in 100 μl) in vitro propagated A549. Sixteen non-necrotic tumors of about 0.5 cm in diameter were randomly divided into two groups of eight mice as follows: group 1, CL4 scrambled-treated; group 2, CL4 42-81-treated. Aptamers (200 pmols/injection) were injected intra-tumorally in 100-1 μl volumes three times a week for 16 days. Tumors were measured every 2 days.

[1] = test system: epidermoid carcinoma A431 cells; assay: Binding on A431 cells; design: species or system human; conditions: high level of EGFR; 100 nM
Experimental: (§1) Binding experiments were performed with 5′-[^32P]-labeled RNA. For labeling 2′-F-Py RNAs were 5′-end dephosphorylated using bacterial alcaline phosphatase (Invitrogen, Carlsbad, Calif.) before [^32P]-5′-end-labeled using T4 kinase (Invitrogen) and γ-[^32P]-ATP (6×10^3 Ci/mmol, GE Healthcare Bio-Sciences, Uppsala, Sweden) according to the supplier's instructions.
(§2) For binding experiments on cells, 3.5×10^4 cells were plated in 24-well plates in triplicate and were incubated with CL4 42-81 aptamer the scrambled sequence used as a negative control at 100 nM concentration in 200 μl of DMEM serum free for 20 min at RT in the presence of 100 μg/ml polyinosine as a nonspecific competitor (Sigma, St. Louis, Mo.). After five washings with 500 μl DMEM, bound sequences were recovered in 300 μl of SDS 1%, and the amount of radioactivity recovered was counted.

NIH3T3 cells = assay: Binding on parental NIH3T3 cells; design: species or system mouse; conditions: [32P]-labeled aptamer at 100 nM; relative to scrambled aptamer
Experimental: Human NSCLC A549, epidermoid carcinoma A431, glioma U87MG and T98G, breast SKBr3, MCF7 and T47D and mouse fibroblast NIH3T3 (all from American Type Culture Collection, Manassas, Va.) cells were grown in Dulbecco's modified Eagle medium (DMEM) supplemented with 10% fetal bovine serum (FBS) and 2 mM L-glutamine (Invitrogen, Carlsbad, Calif.). NIH3T3 cells stably transfected with human EGFR (NIH/EGFR) were grown in DMEM with 10% FBS and 2 mM L-glutamine supplemented with 50 μg/ml Gentamycin.
as §1, §2

H460 cells = assay: Binding on H460 cells; design: species or system human; conditions: low level of EGFR; 100 nM
Experimental: as §1, §2

EGFR = EGFR (Homo sapiens, UniProt P00533); assay: Immunoblot of EGF-dependent EGFR phosphorylation in A549 cells; format: cell-based; design: endogenous in cells; host or cells: A549; conditions: 200 nM aptamer, following 5 min of EGFR stimulation
Experimental: […] The aptamers were subjected to a short denaturation-renaturation step (85° C. for 5 min, snap-cooled on ice for 2 min, and allowed to warm up to 37° C.) before each treatment. To prepare cell extracts, cells were washed twice in ice-cold PBS, and lysed in buffer A (50 mM Tris-HCl pH 8.0 buffer containing 150 mM NaCl, 1% Nonidet P-40, 2 mg/ml aprotinin, 1 mg/ml pepstatin, 2 mg/ml leupeptin, 1 mM Na3VO4). Protein concentration was determined by the Bradford assay using bovine serum albumin as the standard. The cell lysates were subjected to SDS-PAGE. Gels were electroblotted into polyvinylidene difluoride membranes (Millipore Co., Bedford, Mass.), and filters were probed with the indicated primary antibodies: anti-EGFR and anti-phospho-EGFR (Tyr1062), anti-phospho-44/42 MAP kinase (E10) (also indicated as p-Erk), anti-phospho-Akt, anti-Akt and anti-phospho-STAT3 (Tyr705), anti-ErbB2 (all from Cell Signaling, Beverly, Mass., United States); anti-Erk1, anti-EGFR, anti-ErbB3, anti-ErbB4 (C-16) (Santa Cruz Biotechnology, California, United States); anti-α-αtubulin (DM 1A) (Sigma, St. Louis, Mo.).
Proteins were visualized with peroxidase-conjugated secondary antibodies using the enhanced chemiluminescence system (GE Healthcare Bio-Sciences, Uppsala, Sweden). […]

A549 cells = assay: [3H]-thymidine incorporation assay; format: cell-based, human; conditions: A549, 200 nM final concentration, 24 and 48 h
Experimental: A549 cells were treated for 24 h or 48 h with CL4 42-81 or CL4 scrambled. During the final 6 h, cells were pulsed with 1 μCi/ml [^3H]-thymidine (45 Ci/mmol) (Amersham-Pharmacia Biosciences) added in complete growth medium and incubated at 37° C. At the end of each pulse, cells were harvested and [^3H]-thymidine incorporation was analyzed by a Beckman LS 1701 Liquid Scintillation Counter.

For “CL4 42-81: 2′-fluoropyrimidine nuclease-resistant RNA aptamer of 39 nt: 5′ GCCUUAGUAACGUGCUUUGAUGUCGAUUCGACAGGAGGC 3′ (SEQ ID No. 1) (2'-fluoro at CU, RNA at AG, backbone not given here)”, the “caspase-3 activation in xenograft tumors” value (caspase-3) was “activates”, the “binding on A431 cells” value [1] was “binds” and the “binding on parental NIH3T3 cells” value (NIH3T3 cells) was “does not binding”. For the same substance, the “binding on H460 cells” value (H460 cells) was “does not bind”, the “inhibition of EGF-dependent phosphorylation of EGFR” value (EGFR) was 60% and the “[3H]-thymidine incorporation” value (A549 cells) was “completely blocks”.
